Source: US11401286B2 (Tetra Discovery Partners, LLC, priority 2012, dated 2022)
Counter-ions that a name gives are not always drawn.

Target: PDE4D7 (Homo sapiens (Human), UniProt Q08499)
Conditions: read-out: PDE4D7 IC50
Procedure: Here, a kinetic assay of cAMP hydrolysis by purified PDE4 was used, in which PDE4 activity was measured by coupling the formation of the PDE4 reaction product, 5′-adenosine monophosphate, to the oxidation of reduced nicotinamide adenine dinucleotide (NADH) by the use of three coupling enzymes (myokinase, pyruvate kinase and lactate dehydrogenase), which allows fluorescent determination of reaction rates. Assays are performed in 96-well plates in a total volume of 200 μl/well. Compounds are dissolved in dimethylsulfoxide (DMSO) and added to plates in a volume of 10 μl followed by addition of 165 μl of assay mix. Plates are pre-incubated at 25° C. for 15 min and the reactions are initiated by the addition of 25 μl of cAMP followed by thorough mixing. […] Initial rates (slopes) are determined from linear portions of the progress curves. Final concentrations of assay components are as follows: 50 mM Tris, pH 8, 10 mM MgCl2, 50 mM KCl, 2% DMSO, 5 mM tris(2-carboxyethyl)phosphine (TCEP), 0.4 mM phosphenolpyruvate (PEP), 0.01 mM NADH, 0.04 mM adenosine triphosphate (ATP), 0.004 mM cAMP, 7.5 units myokinase from yeast, 1.6 units pyruvate kinase, 2 units lactate dehydrogenase, and either 0.5 nM human PDE4D7 or 10 nM human PDE4B1. All data are percent normalized relative to controls and are presented as percent inhibition. […] Human PDE4D7 contained a mutation of serine 54 to aspartic acid to mimic activation by cAMP-dependent protein kinase A (PKA).
PDE4D7*=PDE4D7 containing a UCR1 activating mutation S54D.

PDE4D7, sequence (Q08499 other isoform, or with tags, fused parts or gaps): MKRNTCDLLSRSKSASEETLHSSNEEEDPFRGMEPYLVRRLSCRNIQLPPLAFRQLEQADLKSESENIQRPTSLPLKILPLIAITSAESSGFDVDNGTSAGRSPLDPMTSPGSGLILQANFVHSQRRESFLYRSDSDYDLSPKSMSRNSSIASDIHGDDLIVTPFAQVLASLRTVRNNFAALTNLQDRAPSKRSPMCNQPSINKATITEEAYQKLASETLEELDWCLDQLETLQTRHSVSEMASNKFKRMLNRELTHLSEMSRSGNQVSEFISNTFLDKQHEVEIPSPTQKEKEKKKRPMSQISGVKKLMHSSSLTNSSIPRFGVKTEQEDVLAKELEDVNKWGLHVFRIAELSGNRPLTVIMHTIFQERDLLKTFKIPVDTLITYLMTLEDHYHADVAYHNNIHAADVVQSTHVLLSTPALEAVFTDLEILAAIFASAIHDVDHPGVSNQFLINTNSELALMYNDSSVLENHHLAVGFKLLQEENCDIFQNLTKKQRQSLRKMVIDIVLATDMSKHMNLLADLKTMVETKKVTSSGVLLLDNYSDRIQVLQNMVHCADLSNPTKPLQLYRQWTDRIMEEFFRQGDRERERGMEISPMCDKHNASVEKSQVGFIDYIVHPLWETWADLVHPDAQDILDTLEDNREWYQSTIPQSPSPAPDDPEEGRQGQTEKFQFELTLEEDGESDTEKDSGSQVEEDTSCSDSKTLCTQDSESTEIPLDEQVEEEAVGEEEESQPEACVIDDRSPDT

Row | Structure (SMILES) | IC50 [nM]
1 | O=C(O)COc1ccc(Nc2cc(-c3cccc(Cl)c3)nc3c2CCC3)cc1 [Example 4, 2-[4-[[2-(3-Chlorophenyl)-6,7-dihydro-5H-cyclopenta[b]pyridin-4-yl]amino]phenoxy]acetic acid] | > 1000

Same assay, conditions: read-out: PDE4D7 IC50; PDE4D7 without asterisk

Row | Structure (SMILES) | IC50 [nM]
2 | O=C(O)c1ccc(Nc2cc(-c3cccc(Cl)c3)nc3c2CCC3)cc1 [Example 5, 4-[[2-(3-Chlorophenyl)-6,7-dihydro-5H-cyclopenta[b]pyridin-4-yl]amino]benzoic acid] | > 1000
3 | OCCc1ccc(Nc2cc(-c3cccc(Cl)c3)nc3c2CCC3)cc1 [Example 6, 2-[4-[[2-(3-Chlorophenyl)-6,7-dihydro-5H-cyclopenta[b]pyridin-4-yl]amino]phenyl]ethanol] | > 1000
4 | CCc1c(Nc2ccc(CC(=O)O)cc2)cc(-c2cccc(Cl)c2)nc1C [Example 7, 2-[4-[[6-(3-Chlorophenyl)-3-ethyl-2-methyl-4-pyridyl]amino]phenyl]acetic acid] | > 1000
5 | O=C(O)CCCc1ccc(Nc2cc(-c3cccc(Cl)c3)nc3c2CCC3)cc1 [Example 8, 4-[4-[[2-(3-Chlorophenyl)-6,7-dihydro-5H-cyclopenta[b]pyridin-4-yl]amino]phenyl]butanoic acid] | > 1000
6 | O=C(O)Cc1ccc(Nc2nc(-c3ccc(Cl)s3)nc3c2CCC3)cc1 [Example 9, 2-[4-[[2-(5-Chloro-2-thienyl)-6,7-dihydro-5H-cyclopenta[d]pyrimidin-4-yl]amino]phenyl]acetic acid] | > 1000
7 | O=C(O)Cc1ccc(Nc2nc(-c3cccc(Cl)c3)nc3c2CCC3)cc1 [Example 10, 2-[4-[[2-(3-Chlorophenyl)-6,7-dihydro-5H-cyclopenta[d]pyrimidin-4-yl]amino]phenyl]acetic acid] | > 1000
8 | CC(=O)NC(C(=O)O)c1ccc(Nc2nc(-c3ccc(Cl)s3)nc3c2CCC3)cc1 (stereo not drawn) [Example 11, 2-Acetamido-2-[4-[[2-(5-chloro-2-thienyl)-6,7-dihydro-5H-cyclopenta[d]pyrimidin-4-yl]amino]phenyl]acetic acid] | > 1000
9 | NC(C(=O)O)c1ccc(Nc2nc(-c3ccc(Cl)s3)nc3c2CCC3)cc1 (stereo not drawn) [Example 12, 2-Amino-2-[4-[[2-(5-chloro-2-thienyl)-6,7-dihydro-5H-cyclopenta[d]pyrimidin-4-yl]amino]phenyl]acetic acid hydrochloride] | > 1000
10 | O=C(O)CCc1ccc(Nc2nc(-c3ccc(Cl)s3)nc3c2CCC3)cc1 [Example 15, 3-[4-[[2-(5-Chloro-2-thienyl)-6,7-dihydro-5H-cyclopenta[d]pyrimidin-4-yl]amino]phenyl]propanoic acid] | > 1000
11 | O=C(O)CCc1ccc(Nc2nc(-c3cccc(Cl)c3)nc3c2CCC3)cc1 [Example 16, 3-[4-[[2-(3-Chlorophenyl)-6,7-dihydro-5H-cyclopenta[d]pyrimidin-4-yl]amino]phenyl]propanoic acid] | > 1000
12 | N#CCc1ccc(Nc2nc(-c3cccc(Cl)c3)nc3c2CCC3)cc1 [Example 19, 2-[4-[[2-(3-chlorophenyl)-6,7-dihydro-5H-cyclopenta[d]pyrimidin-4-yl]amino]phenyl]acetonitrile] | > 1000
13 | NC(=O)Cc1ccc(Nc2nc(-c3ccc(Cl)s3)nc3c2CCC3)cc1 [Example 20, 2-[4-[[2-(5-chloro-2-thienyl)-6,7-dihydro-5H-cyclopenta[d]pyrimidin-4-yl]amino]phenyl]acetamide] | < 1000
14 | NC(=O)Cc1ccc(Nc2nc(-c3cccc(Cl)c3)nc3c2CCC3)cc1 [Example 21, 2-[4-[[2-(3-chlorophenyl)-6,7-dihydro-5H-cyclopenta[d]pyrimidin-4-yl]amino]phenyl]acetamide] | > 1000
15 | Cc1nc(Nc2ccc(F)cc2)nc(-c2ccc(Cl)s2)n1 [Example 23, 4-(5-chlorothiophen-2-yl)-N-(4-fluorophenyl)-6-methyl-1,3,5-triazin-2-amine] | > 1000
16 | Cc1nc(Nc2ccc(CC(=O)O)cc2)nc(-c2ccco2)n1 [Example 24, 2-(4-((4-(furan-2-yl)-6-methyl-1,3,5-triazin-2-yl)amino)phenyl)acetic acid] | > 1000
17 | CC(C)c1nc(Nc2ccc(CC(=O)O)cc2)nc(-c2ccc(Cl)s2)n1 [Example 25, 2-(4-((4-(5-chlorothiophen-2-yl)-6-isopropyl-1,3,5-triazin-2-yl)amino)phenyl)acetic acid] | > 1000
18 | CC(C)c1nc(Nc2ccc(F)cc2)nc(-c2ccc(Cl)s2)n1 [Example 26, 4-(5-chlorothiophen-2-yl)-N-(4-fluorophenyl)-6-isopropyl-1,3,5-triazin-2-amine] | > 1000
19 | CCc1nc(Nc2ccc(CC(=O)O)cc2)nc(-c2ccc(Cl)s2)n1 [Example 27, 2-(4-((4-(5-chlorothiophen-2-yl)-6-ethyl-1,3,5-triazin-2-yl)amino)phenyl)acetic acid] | > 1000
20 | CCc1nc(Nc2ccc(F)cc2)nc(-c2ccc(Cl)s2)n1 [Example 28, 4-(5-chlorothiophen-2-yl)-6-ethyl-N-(4-fluorophenyl)-1,3,5-triazin-2-amine] | > 1000
21 | CC(C)c1nc(Nc2ccc(C(=O)O)cc2)nc(-c2ccc(Cl)s2)n1 [Example 29, 4-(4-(5-chlorothiophen-2-yl)-6-isopropyl-1,3,5-triazin-2-ylamino)benzoic acid] | < 1000
22 | CCc1nc(Nc2ccc(C(=O)O)cc2)nc(-c2ccc(Cl)s2)n1 [Example 30, 4-(4-(5-chlorothiophen-2-yl)-6-ethyl-1,3,5-triazin-2-ylamino)benzoic acid] | < 1000
23 | Cc1nc(Nc2ccc(C(=O)O)cc2)nc(-c2ccc(Cl)s2)n1 [Example 31, 4-(4-(5-chlorothiophen-2-yl)-6-methyl-1,3,5-triazin-2-ylamino)benzoic acid] | > 1000
24 | CCCc1nc(Nc2ccc(CC(=O)O)cc2)nc(-c2ccc(Cl)s2)n1 [Example 32, 2-(4-((4-(5-chlorothiophen-2-yl)-6-propyl-1,3,5-triazin-2-yl)amino)phenyl)acetic acid] | > 1000
25 | CCCc1nc(Nc2ccc(C(=O)O)cc2)nc(-c2ccc(Cl)s2)n1 [Example 33, 4-((4-(5-chlorothiophen-2-yl)-6-propyl-1,3,5-triazin-2-yl)amino)benzoic acid] | > 1000
26 | O=C(O)Cc1ccc(Nc2nc(-c3ccc(Cl)s3)nc(C3CC3)n2)cc1 [Example 34, 2-(4-(4-(5-chlorothiophen-2-yl)-6-cyclopropyl-1,3,5-triazin-2-ylamino)phenyl)acetic acid] | > 1000
27 | COC(=O)Cc1ccc(Nc2nc(Cl)nc(-c3ccc(Cl)s3)n2)cc1 [Example 35, methyl 2-(4-((4-chloro-6-(5-chlorothiophen-2-yl)-1,3,5-triazin-2-yl)amino)phenyl)acetate] | > 1000
28 | O=C(O)Cc1ccc(Nc2nc(-c3cccc(Cl)c3)nc(C3CC3)n2)cc1 [Example 36, 2-(4-((4-(3-chlorophenyl)-6-cyclopropyl-1,3,5-triazin-2-yl)amino)phenyl)acetic acid] | > 1000
29 | O=C(O)Cc1ccc(Nc2nc(-c3ccc(Cl)cc3)nc(C3CC3)n2)cc1 [Example 37, 2-(4-((4-(4-chlorophenyl)-6-cyclopropyl-1,3,5-triazin-2-yl)amino)phenyl)acetic acid] | > 1000
30 | O=C(O)c1ccc(Nc2nc(-c3ccc(Cl)cc3)nc(C3CC3)n2)cc1 [Example 38, 4-((4-(4-chlorophenyl)-6-cyclopropyl-1,3,5-triazin-2-yl)amino)benzoic acid] | < 1000
